According to patent US20100185419A1, “ALGORITHM FOR DESIGNING IRREVERSIBLE INHIBITORS” (Avila Therapeutics, Inc., priority 2008, published 2010):

Assays:
HCV NS3/4A wild type = biological target: T1, HCV NS3/4A wild type (Hepatitis C virus genotype 1b, UniProt P26662); assay: Mass spectral analysis of intact HCV NS3/4A wild type protease; format: binding; conditions: 10-fold excess of compound, 1 hr to 3 hrs, MALDI-TOF
T1 construct: The single-chain proteolytic domain (NS4A21-32-GSGS-NS33-631) was cloned into pET-14b; His tag; made in house; host or cells: Escherichia coli BL21
T1 sequence (P26662 1013-1207, looked up, natural form): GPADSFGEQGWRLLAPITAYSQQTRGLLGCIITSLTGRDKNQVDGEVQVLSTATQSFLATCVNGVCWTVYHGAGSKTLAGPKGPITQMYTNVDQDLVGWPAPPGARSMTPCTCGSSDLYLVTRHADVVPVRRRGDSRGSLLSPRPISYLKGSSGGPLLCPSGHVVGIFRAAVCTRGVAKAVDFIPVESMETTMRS
Protocol: Mass spectrometric analysis of HCV in the presence of Compound 5 was performed using the following protocol: HCV NS3/4A wild type (wt) was incubated for 1 hr at a 10× fold access of Compound 5 to protein. 2 μl aliquots of the samples were diluted with 10 μl of 0.1% TFA prior to micro C4 ZipTipping directly onto the MALDI target using Sinapinic acid as the desorption matrix (10 mg/ml in 0.1% TFA:Acetonitrile 50:50). The instrument was set in linear mode using a pulsed extraction setting of 24,500 and apomyoglobin as the standard to calibrate the instrument.
100 pmols of HCV wild type (Bioenza CA) was incubated with compound for 1 hr and 3 hrs at 10-fold access of Compound 6 to protein. 1 μl aliquots of the samples (total volume of 4.24 ul) were diluted with 10 μl of 0.1% TFA prior to micro C4 ZipTipping directly onto the MALDI target using Sinapinic acid as the desorption matrix (10 mg/ml in 0.1% TFA:Acetonitrile 50:50). Analyses were performed on a Shimadzu Biotech Axima TOF^2 (Shimadzu Instruments) matrix-assisted-laser desorption/ionization Time-of-Flight (MALDI-TOF) mass spectrometer.

HCV NS3/4A 1b protease = HCV NS3/4A 1b protease (Hepatitis C virus genotype 1b, UniProt P26662); assay: biochemical
HCV NS3/4A 1b protease, sequence (P26662 1027-1208): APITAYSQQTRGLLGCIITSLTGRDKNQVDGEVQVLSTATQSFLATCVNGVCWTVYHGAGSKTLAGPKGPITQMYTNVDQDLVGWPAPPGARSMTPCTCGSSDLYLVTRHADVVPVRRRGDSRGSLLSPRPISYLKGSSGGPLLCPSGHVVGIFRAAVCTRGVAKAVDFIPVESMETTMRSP
HCV NS3/4A 1b protease, sequence (P26662 1658-1711): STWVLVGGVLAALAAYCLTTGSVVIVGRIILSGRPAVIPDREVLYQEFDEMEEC
Protocol: An HCV Protease FRET Assay for HCV NS3/4A 1b Enzyme (IC50_APP) was used. The following protocol was used to generate “apparent” IC50 (IC50_APP) values. […] Protease reactions were immediately started after enzyme addition with the addition of 45 μL of the FRET substrate and monitored for 60-90 minutes at λex485/λem520 in a Synergy4 plate reader from BioTek (Winooski, Vt.).

Btk = biological target: T2, Btk (Homo sapiens, UniProt Q06187); assay: Omnia assay for potency against Btk; conditions: biochemical assay; read-out: IC50 Btk kinase
T2 construct: purchased Invitrogen
T2 sequence (Q06187 whole entry): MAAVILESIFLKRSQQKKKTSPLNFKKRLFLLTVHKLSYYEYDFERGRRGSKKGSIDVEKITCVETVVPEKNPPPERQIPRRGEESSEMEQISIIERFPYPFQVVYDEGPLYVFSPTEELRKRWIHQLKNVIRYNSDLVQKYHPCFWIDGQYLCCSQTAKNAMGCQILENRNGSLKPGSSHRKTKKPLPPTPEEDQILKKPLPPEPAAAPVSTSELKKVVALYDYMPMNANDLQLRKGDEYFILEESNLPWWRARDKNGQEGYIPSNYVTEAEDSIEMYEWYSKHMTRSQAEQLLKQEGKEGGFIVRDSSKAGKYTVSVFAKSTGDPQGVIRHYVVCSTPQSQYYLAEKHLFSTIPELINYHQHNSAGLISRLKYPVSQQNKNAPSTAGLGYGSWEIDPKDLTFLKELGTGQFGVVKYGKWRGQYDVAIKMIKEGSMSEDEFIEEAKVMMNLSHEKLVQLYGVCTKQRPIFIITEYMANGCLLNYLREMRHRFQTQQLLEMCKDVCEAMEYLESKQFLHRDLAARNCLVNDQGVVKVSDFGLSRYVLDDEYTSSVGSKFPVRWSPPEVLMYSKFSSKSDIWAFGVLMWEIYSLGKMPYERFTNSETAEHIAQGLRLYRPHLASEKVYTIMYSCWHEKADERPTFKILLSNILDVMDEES
Protocol: The protocol below describes continuous-read kinase assays to measure inherent potency of compounds against active forms of Btk enzyme. The mechanics of the assay platform are best described by the vendor (Invitrogen, Carlsbad, Calif.) on the world wide web at invitrogen.com/site/us/en/home/Products-and-Services/Applications/Drug-Discovery/Target-and-Lead-Identification-and-Validation/KinaseBiology/KB-Misc/Biochemical-Assays/Omnia-Kinase-Assays.html. Briefly, 10× stocks of 5 nM Btk from Invitrogen, 1.13×40 μM ATP (AS001A) and 10 μM (ATP KMapp ˜[…]) Tyr-Sox conjugated peptide substrates (KCZ 1001) were prepared in 1× kinase reaction buffer consisting of 20 mM Tris, pH 7.5, 5 mM MgCl2, 1 mM EGTA, 5 mM β-glycerophosphate, 5% glycerol (10× stock, KBOO2A) and 0.2 mM DTT (DS001A).

[1] = tested on: Btk signaling in Ramos cells; assay: Btk Ramos cellular assay (PLCγ2 phosphorylation); format: cell-based; conditions: Homo sapiens, 1 μM compound
Protocol: Compounds CNX-85 was assayed in Ramos human Burkitt lymphoma cells. Ramos cells were grown in suspension in T225 flasks, spun down, resuspended in 50 mls serum-free media and incubated for 1 hour. Compound was added to Ramos cells in serum free media to a final concentration of 1, 0.1, 0.01, or 0.001 μM. Ramos cells were incubated with compound for 1 hour, washed again and resuspended in 100 ul serum-free media. Cells were then stimulated with 1 μg of goat F(ab′)2 Anti-Human IgM and incubated on ice for 10 minutes to activate B cell receptor signaling pathways. After 10 minutes, the cells were washed once with PBS and then lysed on ice with Invitrogen Cell Extraction buffer. 16 μg total protein from lysates were loaded on gel and blots were probed for phosphorylation of the Btk substrate PLCγ2.

SMILES | adduct formation with HCV protease wild type (HCV NS3/4A wild type) | IC50 (HCV NS3/4A 1b protease) | IC50 (Btk) | inhibition at 1 µM [1]
C=C[C@@H]1C[C@]1(NC(=O)[C@@H]1C[C@@H](Oc2cc(-c3ccccc3)nc3cc(OC)ccc23)CN1C(=O)[C@H](CCC(=O)C=C(C)C)NC(=O)OC(C)(C)C)C(=O)NS(=O)(=O)C1CC1 [Compound 8, tert-butyl-(S)-1-((2S,4R)-2-((1R,2S)-1-(cyclopropylsulfonylcarbamoyl)-2-vinylcyclopropylcarbamoyl)-4-(7-methoxy-2-phenylquinolin-4-yloxy)pyrrolidin-1-yl)-7-methyl-1,5-dioxooct-6-en-2-ylcarbamate] | adduct of HCV protease with the compound was formed | < 0.5 nM |  | 
C=CC(=O)Nc1cccc(Nc2cc(Nc3ccc(Oc4ccccc4)cc3)ncn2)c1 [Compound 10, N-{3-[6-(4-phenoxyphenylamino)-pyrimidin-4-ylamino]phenyl}-2 propenamide] |  |  | 1.8 nM | 85%
